One compound from US9062050B2, “Inhibitor of JAK1 and JAK2” (Eli Lilly and Company, priority 2012, dated 2015) can be followed below.

The assay has as its target T1, JAK3 (Homo sapiens, UniProt P52333).
T1 sequence (P52333 1-1124): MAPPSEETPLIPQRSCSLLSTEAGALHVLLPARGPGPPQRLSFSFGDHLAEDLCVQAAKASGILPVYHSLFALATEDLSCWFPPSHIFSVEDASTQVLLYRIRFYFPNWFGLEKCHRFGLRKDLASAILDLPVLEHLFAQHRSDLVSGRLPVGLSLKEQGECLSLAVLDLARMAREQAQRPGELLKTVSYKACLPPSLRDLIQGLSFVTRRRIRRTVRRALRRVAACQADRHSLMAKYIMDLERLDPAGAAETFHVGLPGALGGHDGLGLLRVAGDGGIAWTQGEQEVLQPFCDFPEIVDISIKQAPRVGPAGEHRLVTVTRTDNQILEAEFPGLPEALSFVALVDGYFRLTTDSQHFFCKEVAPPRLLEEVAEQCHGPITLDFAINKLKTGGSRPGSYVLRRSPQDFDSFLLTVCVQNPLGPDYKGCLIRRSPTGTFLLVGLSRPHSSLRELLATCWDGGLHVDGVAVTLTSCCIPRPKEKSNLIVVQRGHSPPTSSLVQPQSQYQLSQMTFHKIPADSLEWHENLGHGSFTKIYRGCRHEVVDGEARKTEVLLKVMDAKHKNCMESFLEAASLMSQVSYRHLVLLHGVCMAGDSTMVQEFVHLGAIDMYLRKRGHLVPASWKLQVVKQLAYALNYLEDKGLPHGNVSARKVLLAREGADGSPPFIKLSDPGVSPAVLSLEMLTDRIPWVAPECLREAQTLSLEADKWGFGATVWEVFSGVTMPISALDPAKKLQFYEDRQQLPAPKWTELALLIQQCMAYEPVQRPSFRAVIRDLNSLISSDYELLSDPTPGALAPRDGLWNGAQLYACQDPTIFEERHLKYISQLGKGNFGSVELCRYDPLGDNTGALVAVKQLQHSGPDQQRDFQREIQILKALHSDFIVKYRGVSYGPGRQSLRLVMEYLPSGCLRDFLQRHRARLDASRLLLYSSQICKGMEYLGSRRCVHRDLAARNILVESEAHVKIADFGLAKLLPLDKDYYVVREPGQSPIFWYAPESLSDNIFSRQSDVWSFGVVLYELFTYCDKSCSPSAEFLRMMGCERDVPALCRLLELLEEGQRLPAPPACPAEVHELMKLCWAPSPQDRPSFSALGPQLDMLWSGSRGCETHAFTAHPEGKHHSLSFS
As to the kind of experiment: JAK3 IL-2-NK-92/pSTAT5 cell-based assay (Cellomics ArrayScan HCS). On the set-up: host or cells: NK-92 (natural killer) cells. An excerpt: IL-2 activates the JAK3 pathway in natural killer (NK) cells to drive the NK and CD8 lymphocyte proliferation. Therefore, IL-2 stimulated NK92/pSTAT5 cell-based assay enables the evaluation of the JAK3 cellular activity of JAK compounds in vitro.
NK-92 (natural killer) cells (ATCC, Manassas, Va.) are maintained in minimum essential medium (MEM) Alpha with 15% fetal bovine serum, 15% Horse Serum and 1× antibiotic/antimycotic (Invitrogen, Carlsbad, Calif.). The medium is supplemented with IL-2 (R&D systems, Minneapolis, Minn.) for a final concentration of 4 ng/mL. Cells are kept at 37° C. with 5% CO2. Cells are starved in serum free medium to remove endogenous growth factors. NK-92 cells are counted and collected to seed 2×10^7 cells per 96-well plate at a density of 2×10^5 cells per well. The cells are rinsed twice with unsupplemented MEM Alpha (MEM Alpha) before suspending cells at a final concentration of 8×10^5 cells/mL in MEM Alpha with 0.6% serum (0.3% FBS, 0.3% horse serum). The diluted cells are added back to tissue culture flasks and incubated overnight at 37° C. Test compound is prepared in 100% DMSO at 10 mM concentration. […] An aliquot of 200 μL of 1 to 10 dilution of Mouse anti-pSTAT5 (pY694) Alexa Fluor 647® in fluorescence activated cell sorting (FACS) buffer is added to the cells. […] Mean fluorescent intensity data are collected and analyzed using Cellomics Arrayscan® VTi. […]

pIC50: −log10 of the molar value.

The pIC50 is the negative decadic logarithm of the IC50, by convention in mol/L. As for `Cc1cc(Nc2ccc3ncn([C@@H]4CCc5ccc(F)cc54)c3n2)[nH]n1.Cl.Cl` [Example 1, 3-[(1R)-6-fluoro-2,3-dihydro-1H-inden-1-yl]-N-(3-methyl-1H-pyrazol-5-yl)-3H-imidazo[4,5-b]pyridin-5-amine dihydrochloride], the pIC50 (NK-92 cells, IL-2 at 0.5 ng/mL, relative IC50, n=61, read-out: IC50, inhibits JAK3 (pSTAT5)) is 6.64. Besides, the “ratio of JAK3/JAK2 IC50” value (from the two cell-based assays (EPO-TF1/pSTAT5 and IL-2-NK-92/pSTAT5)) was “more than six-fold”.
